Earlier results, collected in US20260373079A1, “USE OF LONG-ACTING FLUTICASONE PROPIONATE INJECTABLE SUSPENSIONS FOR TREATING AND PREVENTING INFLAMMATIONS OF THE GASTROINTESTINAL TRACT” (EUPRAXIA PHARMACEUTICALS INC., priority 2022, published 2026).
Values belong to the compound of their own block, whether it stands above or below them.

What was measured:
[1] = for first pass metabolism, relative to fluticasone: in words
[2] = EoE patients
[3] = treatment of EoE; subcutaneous; weekly dosing recommended

first pass metabolism, relative to fluticasone [1]: substantially lower
Compound: C[C@H]1C[C@H]2[C@@H]3CCC4=CC(=O)C=C[C@]4(C)[C@@]3(Cl)[C@@H](O)C[C@]2(C)[C@@]1(O)C(=O)CO [beclomethasone]

first-pass metabolism ([1]; by the liver): ~ 99%
Compound: CCC(=O)O[C@]1(C(=O)SCF)[C@H](C)C[C@H]2[C@@H]3C[C@H](F)C4=CC(=O)C=C[C@]4(C)[C@@]3(F)[C@@H](O)C[C@@]21C [fluticasone]

first pass metabolism, relative to fluticasone [1]: substantially lower
Compound: C[C@]12C=CC(=O)C=C1CC[C@H]1[C@@H]3C[C@@H](O)[C@](O)(C(=O)CO)[C@@]3(C)C[C@H](O)[C@@]12F [triamcinolone]

Compound: Dupixent: a monoclonal antibody that is administered subcutaneously
upper respiratory tract infections [2]: 18 % of patients | effective in patients [3]: 60 % of patients
